Common to all, as to type: functional, cell-based
One test deals with MCF7. Put plainly: Antiproliferative activity against human MCF7 cells assessed as cell viability incubated for 48 hrs by MTT assay. Particulars: MCF7, 48 h. Background: Tetrazolium dyes change colour on reduction, which living cells bring about.
A further test has as its system A2780. The test is described as follows: Antiproliferative activity against human A2780 cells assessed as cell viability incubated for 48 hrs by MTT assay. Particulars: A2780, 48 h.
In another test the test system is A549. The test is described as follows: Antiproliferative activity against human A549 cells assessed as cell viability incubated for 48 hrs by MTT assay. Particulars: A549, 48 h.
In another test the test system is HCT-8. Put plainly: Antiproliferative activity against human HCT-8 cells assessed as cell viability incubated for 48 hrs by MTT assay. Particulars: HCT-8, 48 h.
Another test relates to HeLa. The test is described as follows: Antiproliferative activity against human HeLa cells assessed as cell viability incubated for 48 hrs by MTT assay.

In the case of `C=C(c1ccc(OC)cc1NC(=O)CNC)c1ccc(OC)c2c1OC(C)(C)C=C2`, the IC50 (commonly the midpoint of a concentration-inhibition curve) was determined as 400 nM with MCF7; 210 nM with A2780; 150 nM with A549; 320 nM in the test with HCT-8; 310 nM with HeLa.

Regarding `C=C(c1ccc(OC)cc1NC(=O)CN(C)C)c1ccc(OC)c2c1C=CC(C)(C)O2`, the IC50 in the test with MCF7 is 2580 nM; in the test with A2780, 670 nM; in the test with A549 it was 550 nM; in the test with HCT-8, 1920 nM; in the test on HeLa, 790 nM.

`C=C(c1ccc2c(c1)C=CC(C)(C)O2)c1ccc(OC)cc1NC(=O)CN(C)C`: the IC50 with MCF7 was 940 nM; with A2780, 510 nM; in the test with A549 it was 430 nM; in the test with HCT-8, 690 nM; in the test with HeLa, 640 nM.

Turning to `CCNCC(=O)Nc1cc(OC)ccc1C(=O)c1ccc(OC)c2c1OC(C)(C)C=C2`, the 50% inhibitory concentration (IC50) with MCF7 came to 5200 nM; in the test with A2780 it was 1980 nM; in the test on A549 it was 1050 nM; in the test with HCT-8 it was 3690 nM; in the test with HeLa, 2690 nM.

With `COc1ccc(C(=O)c2ccc(OC)c3c2C=CC(C)(C)O3)c(NC(=O)CO)c1`, the IC50 in the test with MCF7 is 940 nM; in the test with A2780 it was 420 nM; with A549 it was 100 nM; in the test on HCT-8, 630 nM; in the test on HeLa it was 310 nM.

Turning to `COc1ccc(/C=C/C(=O)c2ccc(OC)c3c2OC(C)(C)C=C3)cc1` [MILLEPACHINE], the IC50 in the test with MCF7 was 6980 nM; with A2780 it was 3090 nM; with A549, 3950 nM; in the test with HCT-8, 5020 nM; in the test on HeLa it was 6030 nM.

`COc1ccc(C(=O)c2cc(OC)c(OC)c(OC)c2)c(NC(=O)CN(C)C)c1`: the IC50 in the test with MCF7 came to 790 nM; in the test with A2780, 580 nM; with A549, 590 nM; in the test on HCT-8 it was 790 nM; in the test on HeLa it was 470 nM.

Take `C=C(c1ccc(OC)cc1NC(=O)CN)c1ccc(OC)c2c1OC(C)(C)C=C2`: the IC50 turned out to be 220 nM in the test on MCF7; 80 nM in the test on A2780; 50 nM in the test on A549; 190 nM in the test with HCT-8; 120 nM with HeLa.

In the case of `COc1ccc(C(=O)c2ccc(OC)c3c2C=CC(C)(C)O3)c(NC(=O)CBr)c1`, the half-inhibitory concentration (IC50) in the test with MCF7 was determined as 3290 nM; in the test with A2780, 2150 nM; in the test with A549 it was 2460 nM; in the test on HCT-8, 4360 nM; in the test on HeLa, 3680 nM.

Take `CNCC(=O)Nc1cc(OC)ccc1C(=O)c1ccc(OC)c2c1C=CC(C)(C)O2`: the IC50 came out at 3040 nM with MCF7; 1590 nM with A2780; 1370 nM in the test on A549; 3460 nM in the test on HCT-8; 2170 nM with HeLa.

For `C=C(c1ccc2c(c1)C=CC(C)(C)O2)c1ccc(OC)cc1NC(=O)CNCC`, the concentration for half-maximal inhibition (IC50) in the test with MCF7 was found to be 3370 nM; with A2780 it was 1870 nM; in the test on A549, 1180 nM; in the test on HCT-8, 2220 nM; in the test with HeLa it was 1580 nM.

`CCNCC(=O)Nc1cc(OC)ccc1C(=O)c1ccc2c(c1)C=CC(C)(C)O2`: the concentration for half-maximal inhibition (IC50) with MCF7 came out at 6310 nM; in the test with A2780, 2070 nM; with A549 it was 1300 nM; with HCT-8, 3990 nM; in the test with HeLa it was 3110 nM.

On to `COc1ccc(C(=O)c2cc(OC)c(OC)c(OC)c2)c(NC(=O)CN)c1`, for which the 50% inhibitory concentration (IC50) in the test with MCF7 amounted to 270 nM; with A2780, 190 nM; in the test on A549, 220 nM; in the test on HCT-8, 330 nM; in the test on HeLa, 130 nM.

With `CNCC(=O)Nc1cc(OC)ccc1C(=O)c1ccc2c(c1)C=CC(C)(C)O2`, the IC50 in the test on MCF7 worked out at 1210 nM; with A2780, 850 nM; with A549, 800 nM; in the test with HCT-8 it was 1010 nM; with HeLa it was 970 nM.

Regarding `COc1ccc(C(=O)c2ccc3c(c2)C=CC(C)(C)O3)c(NC(=O)CN(C)C)c1`, the IC50 was determined as 3560 nM in the test on MCF7; 1020 nM with A2780; 1160 nM in the test on A549; 2420 nM with HCT-8; 1260 nM in the test with HeLa.

Turning to `COc1ccc(C(C)c2cc(OC)c(OC)c(OC)c2)c(NC(=O)CO)c1O` (stereo not given), the half-maximal inhibitory concentration (IC50) with MCF7 was 790 nM; with A2780 it was 280 nM; in the test with A549, 180 nM; with HCT-8 it was 590 nM; in the test on HeLa, 390 nM.

Take `C=C(c1ccc(OC)cc1NC(=O)CN)c1ccc(OC)c2c1C=CC(C)(C)O2`: the IC50 in the test with MCF7 was found to be 780 nM; in the test on A2780, 400 nM; with A549, 90 nM; with HCT-8 it was 520 nM; with HeLa, 200 nM.

Consider `COc1ccc(C(=O)c2ccc(OC)c3c2C=CC(C)(C)O3)c(NC(=O)CN(C)C)c1`, for which the half-maximal inhibitory concentration (IC50) in the test with MCF7 amounted to 6530 nM; in the test on A2780, 3990 nM; in the test on A549, 1850 nM; in the test with HCT-8, 5660 nM; in the test with HeLa, 3620 nM.

With `C=C(c1ccc(OC)cc1NC(=O)CNC)c1ccc(OC)c2c1C=CC(C)(C)O2`, the IC50 in the test with MCF7 was determined as 1010 nM; in the test with A2780 it was 720 nM; with A549, 320 nM; in the test on HCT-8, 980 nM; in the test with HeLa, 500 nM.

As for `C=C(c1ccc2c(c1)C=CC(C)(C)O2)c1ccc(OC)cc1NC(=O)CNC`, the half-inhibitory concentration (IC50) in the test with MCF7 was determined as 720 nM; with A2780, 320 nM; in the test on A549 it was 200 nM; in the test with HCT-8, 590 nM; in the test with HeLa, 410 nM.

Regarding `COc1ccc(C(=O)c2ccc(OC)c3c2OC(C)(C)C=C3)c(NC(=O)CBr)c1`, the half-inhibitory concentration (IC50) stood at 2360 nM with MCF7; 980 nM in the test on A2780; 1210 nM with A549; 3250 nM with HCT-8; 2140 nM with HeLa.

As to `COc1ccc(C(=O)c2ccc3c(c2)C=CC(C)(C)O3)c(NC(=O)CBr)c1`, the concentration for half-maximal inhibition (IC50) in the test on MCF7 is 2880 nM; in the test with A2780, 1870 nM; with A549 it was 1980 nM; in the test on HCT-8, 3260 nM; with HeLa it was 3050 nM.

In the case of `C=C(c1cc(OC)c(OC)c(OC)c1)c1ccc(OC)cc1NC(=O)CN(C)C`, the IC50 amounted to 390 nM with MCF7; 240 nM in the test on A2780; 130 nM in the test with A549; 340 nM with HCT-8; 370 nM in the test with HeLa.

Turning to `C=C(c1cc(OC)c(OC)c(OC)c1)c1ccc(OC)cc1NC(=O)CNCC`, the IC50 with MCF7 came out at 860 nM; with A2780, 450 nM; with A549 it was 260 nM; in the test on HCT-8, 590 nM; with HeLa it was 430 nM.

Regarding `CNCC(=O)Nc1cc(OC)ccc1C(=O)c1cc(OC)c(OC)c(OC)c1`, the IC50 in the test with MCF7 turned out to be 550 nM; with A2780, 580 nM; in the test on A549, 610 nM; in the test on HCT-8 it was 780 nM; with HeLa, 690 nM.

For `C=C(c1cc(OC)c(OC)c(OC)c1)c1ccc(OC)cc1NC(=O)CO`, the 50% inhibitory concentration (IC50) with MCF7 is 110 nM; with A2780, 30 nM; with A549 it was 20 nM; in the test with HCT-8 it was 40 nM; with HeLa it was 30 nM.

For the molecule `C=C(c1cc(OC)c(OC)c(OC)c1)c1ccc(OC)cc1NC(=O)CN`, the IC50 came out at 190 nM in the test with MCF7; 30 nM in the test on A2780; 40 nM with A549; 60 nM with HCT-8; 70 nM in the test on HeLa.

In the case of `C=C(c1ccc(OC)cc1NC(=O)CNCC)c1ccc(OC)c2c1C=CC(C)(C)O2`, the IC50 is 2920 nM in the test on MCF7; 2010 nM with A2780; 1870 nM in the test with A549; 3050 nM with HCT-8; 2590 nM in the test on HeLa.

For the molecule `C=C(c1ccc(OC)cc1NC(=O)CNCC)c1ccc(OC)c2c1OC(C)(C)C=C2`, the half-inhibitory concentration (IC50) in the test with MCF7 worked out at 2100 nM; with A2780, 1030 nM; in the test on A549, 970 nM; in the test on HCT-8 it was 1380 nM; with HeLa, 1090 nM.

Consider `C=C(c1ccc2c(c1)C=CC(C)(C)O2)c1ccc(OC)cc1NC(=O)CN`, for which the concentration for half-maximal inhibition (IC50) in the test with MCF7 stood at 420 nM; in the test with A2780, 140 nM; in the test on A549, 60 nM; with HCT-8, 220 nM; in the test with HeLa it was 160 nM.

Regarding `C=C(c1cc(OC)c(OC)c(OC)c1)c1ccc(OC)cc1NC(=O)CNC`, the IC50 in the test on MCF7 was 240 nM; with A2780, 140 nM; with A549 it was 100 nM; in the test with HCT-8 it was 190 nM; with HeLa it was 140 nM.

Turning to `C=C(c1ccc2c(c1)C=CC(C)(C)O2)c1ccc(OC)cc1NC(=O)CO`, the half-maximal inhibitory concentration (IC50) is 390 nM with MCF7; 110 nM with A2780; 40 nM in the test on A549; 220 nM in the test with HCT-8; 100 nM with HeLa.

For `CNCC(=O)Nc1cc(OC)ccc1C(=O)c1ccc(OC)c2c1OC(C)(C)C=C2`, the IC50 in the test on MCF7 was 820 nM; with A2780 it was 620 nM; in the test on A549, 620 nM; in the test with HCT-8, 740 nM; in the test on HeLa, 870 nM.

With `COc1ccc(C(=O)c2ccc3c(c2)C=CC(C)(C)O3)c(NC(=O)CO)c1`, the 50% inhibitory concentration (IC50) worked out at 200 nM with MCF7; 130 nM with A2780; 90 nM in the test with A549; 250 nM with HCT-8; 240 nM with HeLa.

On to `C=C(c1cc(OC)c(OC)c(OC)c1)c1ccc(OC)c(O)c1NC(=O)COCC`, for which the IC50 with MCF7 is 1050 nM; in the test with A2780 it was 1230 nM; in the test on A549 it was 880 nM; in the test on HCT-8, 910 nM; in the test on HeLa it was 690 nM.

As for `COc1ccc(C(=O)c2ccc(OC)c3c2C=CC(C)(C)O3)c(NC(=O)CN)c1`, the concentration for half-maximal inhibition (IC50) is 1250 nM in the test on MCF7; 890 nM in the test on A2780; 420 nM in the test on A549; 1050 nM in the test on HCT-8; 100 nM in the test with HeLa.

As for `CCNCC(=O)Nc1cc(OC)ccc1C(=O)c1cc(OC)c(OC)c(OC)c1`, the concentration for half-maximal inhibition (IC50) with MCF7 turned out to be 1050 nM; with A2780 it was 950 nM; in the test with A549, 750 nM; with HCT-8 it was 1560 nM; with HeLa, 2100 nM.
